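Each compound was tested at five concentrations against cells in 96-well plates for 48 hours. TGI denotes the concentration required for complete inhibition of growth.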

The results in this text go back to PubChem BioAssay (NCI).

Assay in all cases: NCI tumour cell line growth inhibition, 48 h
For experiment [1], the system named is U251 CNS.
In experiment [2] the test system is SK-MEL-2 melanoma.
The test system of experiment [3] is HOP-92 NSCLC.
Experiment [4] relates to RPMI-8226 leukemia.
The test system of experiment [5] is SNB-19 CNS.
Experiment [6] has as its system OVCAR-8 ovarian.
Experiment [7] concerns SK-MEL-28 melanoma.
For experiment [8], the system named is DU-145 prostate.
The subject of experiment [9] is IGROV1 ovarian.
For experiment [10], the system named is UO-31 renal.

As to `Cc1cn(C2CC(n3cc(Cn4cc(I)c(=O)[nH]c4=O)nn3)C(CO)O2)c(=O)[nH]c1=O` (configuration not stated), the TGI in [1], in [2], in experiment [3], in experiment [4], in experiment [5] and in experiment [6] was more than 100 µM throughout. In addition, the TGI in experiment [7] and in experiment [8] was more than 100 µM each time.
With `Cc1cc(O)c2c(=O)c3ccccc3[nH]c2c1`, the TGI was more than 100 µM in experiment [1]; more than 100 µM in experiment [2]; more than 100 µM in experiment [3]; 41 µM in experiment [4]; 94.2 µM in experiment [9]; more than 100 µM in experiment [5]. The TGI in [6] was 70.2 µM; in experiment [7], more than 100 µM; in [8] it was more than 100 µM.
For `CC1(C)N=C(/C(Cl)=[N+](/[O-])C(=O)c2ccc(F)cc2)C(C)(C)N1O`, the TGI in experiment [2] was 40.3 µM; in experiment [3] it was 40 µM; in [4] it was 38.1 µM; in experiment [9] it was 37 µM; in [10], 37.9 µM; in [5], more than 100 µM. Further, the TGI in [6] came to 33.9 µM; in [7], 32.4 µM; in experiment [8] it was 78.7 µM.
Turning to `CCOC(=O)Nn1c(C)nnc1-c1ccccc1`, the TGI in [1], in experiment [2], in experiment [3], in experiment [4], in experiment [9] and in experiment [10] was more than 100 µM throughout. Further, the TGI in [5], in experiment [6] and in experiment [8] was more than 100 µM each time.
For the compound `N=c1n(C(=O)N2CCCC2)c2cc(Cl)ccc2n1C1=NCCN1`, the TGI in [1], in experiment [2], in experiment [3], in experiment [4], in [9] and in experiment [5] was more than 100 µM throughout. In addition, the TGI in [6], in [7] and in experiment [8] was more than 100 µM each time.
With `O=S1(=O)NC(=NCc2c[nH]c3ccccc23)N(c2ccccc2)c2ccncc21`, the TGI in experiment [1], in experiment [2], in experiment [3], in experiment [10], in [5] and in [6] was more than 100 µM each time. Also, the TGI in experiment [7] and in experiment [8] was more than 100 µM in each case.
For the compound `Cc1ccccc1-n1c(=O)c2ncn(CCCl)c2n(-c2ccccc2C)c1=S`, the TGI in experiment [1], in experiment [2], in [3], in [4], in experiment [9] and in experiment [10] was more than 100 µM throughout. For the same compound, the TGI in [6], in experiment [7] and in [8] was more than 100 µM throughout.
Turning to `COC(=O)[C@H](Cc1c[nH]c2ccccc12)NP(=O)(O)OCC1C=CC(n2cc(C)c(=O)[nH]c2=O)O1` (some centres not stated), the TGI in experiment [1], in experiment [2], in experiment [3], in experiment [4], in experiment [9] and in [5] was more than 100 µM throughout. In addition, the TGI in experiment [6], in experiment [7] and in experiment [8] was more than 100 µM throughout.
As for `COc1cc([C@@H]2c3cc4c(cc3[C@@H](Nc3ccc([N+](=O)[O-])cc3C(=O)c3ccccc3)[C@H]3COC(=O)[C@H]23)OCO4)cc(OC)c1OC`, the TGI in experiment [1], in experiment [2], in [3], in experiment [4], in [9] and in experiment [5] was more than 100 µM each time. For the same compound, the TGI in experiment [6] and in [8] was more than 100 µM throughout.
In the case of `COC(=O)[C@H]1CO[C@@H](C(C)(C)C)N1C(=O)N1C=CC(=O)C[C@@H]1C`, the TGI in [1], in experiment [2], in experiment [3], in experiment [4], in experiment [9] and in [10] was more than 100 µM in each case. For the same compound, the TGI in experiment [6], in experiment [7] and in experiment [8] was more than 100 µM each time.
For the compound `C(/c1ccco1)=c1/nc(-c2ccccc2)n2c1nc1ccccc12`, the TGI in experiment [1] was more than 100 µM; in experiment [2] it was more than 100 µM; in [3] it was more than 100 µM; in experiment [4], 44.4 µM; in experiment [9], more than 100 µM; in experiment [10], more than 100 µM. Besides, the TGI in experiment [5], in [6] and in experiment [8] was more than 100 µM throughout.
With `Clc1ccc(/C=C/c2nc3ccccc3s2)cc1Cl`, the TGI was more than 100 µM in experiment [1]; 72.3 µM in experiment [3]; more than 100 µM in experiment [4]; more than 100 µM in experiment [9]; 56 µM in experiment [10]; more than 100 µM in experiment [5]. The TGI in [6], in experiment [7] and in [8] was more than 100 µM in each case.
For `COc1cc(/C=C2\S/C(=N/Nc3nc(-c4ccc(Br)cc4)cs3)NC2=O)cc(OC)c1OC`, the TGI in [1] worked out at 16.3 µM; in experiment [2], 35.8 µM; in [3], 18.3 µM; in [9], 37 µM; in [10], 16.7 µM; in experiment [5], 67.7 µM. For the same compound, the figures for the TGI in experiment [6], in experiment [7] and in [8] were 29.6 µM, 99.1 µM and 52.4 µM, respectively.
As for `Oc1cc2c3c(c1)c1cc4c(cc1c[n+]3CC2)OCO4`, the TGI in experiment [2] was more than 84.5 µM; in experiment [3] it was more than 75.6 µM; in [4], 6.46 µM; in experiment [9] it was more than 39.8 µM; in [10] it was more than 100 µM; in [5] it was 10.2 µM. The figures for the TGI in [6], in experiment [7] and in [8] were 14.1 µM, more than 41.8 µM and more than 42.9 µM, respectively.
On to `Cc1cn(C2CC(N(O)C(N)=O)C(CO)O2)c(=O)[nH]c1=O` (configuration not stated), for which the TGI in [1], in experiment [2], in experiment [3], in experiment [4], in [10] and in [5] was more than 100 µM in each case. For the same compound, the TGI in experiment [6], in [7] and in experiment [8] was more than 100 µM in each case.
